From patent US12485073B2, “Oral care compositions and methods of use” (Colgate-Palmolive Company, priority 2019, dated 2025)

Experiments:
[1] = 1H NMR analysis of MeSA hydrolysis in aqueous alkaline solution; format: physicochemical; conditions: for effect of added amino acid or derivative on MeSA hydrolysis rate: pH 9.0, aqueous solution (FIG. 4, 7, 8); for ester hydrolysis: with or without Gly at pH 9.0, within 48 hours (FIG. 4)
Source text: Direct detection and quantification of MeSA in aqueous solution is challenging due to its low water solubility. While ^1H NMR provides structural and quantitative information of the specific substrate in the aqueous mixture, the greatest limitation of NMR is its poor sensitivity. […] Typically, a high concentration of substrate is needed for NMR quantitative analysis. However, to quantify a substrate by NMR at concentrations at or below about 0.1 wt. % in water is not possible without effective solvent suppression. To overcome this hurdle, composite n/2 pulses were applied prior to pre-saturation pulses to effectively suppress the water peak of the sample.
Studies were conducted to test how pH affects MeSA hydrolysis.
Next, the phenolic hydroxyl group was examined to test whether it affects hydrolysis of MeSA at basic pH. The hydrolysis of two analogue compounds, namely, methyl benzoate and methyl paraben were studied as comparators.
The t-butyloxycarbonyl (BOC) and methyl ester groups are routinely used in peptide synthesis to protect amine and carboxyl group of amino acid from reaction.

[2] = Methyl salicylate concentration versus pH in presence of arginine, UV/Vis (FIG. 9); format: physicochemical
Source text: As shown, degradation of methyl salicylate can be substantially mitigated even in the presence of an amino acid under accelerated aging conditions. A curve for the relationship between pH and the above compositions is illustrated in FIG. 9.

ester hydrolysis [1] | Structure (SMILES) | effect of added amino acid or derivative on MeSA hydrolysis rate [1] | further results
– | COC(=O)CNC(=O)OC(C)(C)C [Boc-Gly methyl ester, reference compound] | significantly reduces to the same level as that of MeSA without Gly | –
– | CC(C)(C)OC(=O)NCC(=O)O [Boc-Gly-OH, reference compound] | much faster than that of MeSA alone | –
– | COC(=O)CN [Gly methyl ester, reference compound] | slightly faster than that of MeSA only | –
significant hydrolysis | COC(=O)c1ccccc1O [MeSA, Methyl salicylate] | – | MeSA degradation ([2]; pH 7.5): dramatically increases; preservation of MeSA ([2]; pH at 6.5 or 7.0): good preservation; reduction of peak intensity of the methyoxy group of MeSA ([1]; after 12 hr hydrolysis, 0.05 wt % MeSA + 0.025 wt % glycine, pH 9.0, 25° C.): about 30%; degradation of MeSA concentration (hydrolysis rate) as solution is more basic ([1]; water without amino acid, pH range 8 to 11.5 (FIG. 3)): becomes faster; MeSA hydrolysis ([1]; with Gly at pH 7.0): drastically reduced
– | NCCCC[C@H](N)C(=O)O [lysine] | accelerate the degradation of MeSA | –
no ester hydrolysis | COC(=O)c1ccc(O)cc1 [methyl paraben, reference compound] | – | –

Structure (SMILES) | ester hydrolysis [1] | effect of added amino acid or derivative on MeSA hydrolysis rate [1] | further results
COC(=O)c1ccccc1 [methyl benzoate, reference compound] | no ester hydrolysis | – | –
